According to US12692254B2, “Benzimidazole inhibitors of PAD enzymes” (BRISTOL-MYERS SQUIBB COMPANY, priority 2018, dated 2026):

molecular target: human PAD4 (hPAD4) (Homo sapiens, UniProt Q9UM07); test: RFMS human PAD4 functional assay (rapid-fire mass spectrum); type: biochemical; settings: 5 nM hPAD4 enzyme, 250 μM BAEE, 50 μM Calcium; 30 min preincubation, 90 min reaction at 37° C.
Procedure, shortened: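 PAD4 (10 nM) preincubated 30 min with compound (top final 50 μM), then BAEE substrate added in pH 7.5 HEPES buffer with DTT, 50 μM calcium, TPEN; 90 min at 37° C. After TCA quench, citrulline derivatized with phenyl glyoxal (4 mM final, 30 min, 37° C) and quantified by RapidFire MS against internal standard.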

human PAD4 (hPAD4), sequence (Q9UM07 whole entry): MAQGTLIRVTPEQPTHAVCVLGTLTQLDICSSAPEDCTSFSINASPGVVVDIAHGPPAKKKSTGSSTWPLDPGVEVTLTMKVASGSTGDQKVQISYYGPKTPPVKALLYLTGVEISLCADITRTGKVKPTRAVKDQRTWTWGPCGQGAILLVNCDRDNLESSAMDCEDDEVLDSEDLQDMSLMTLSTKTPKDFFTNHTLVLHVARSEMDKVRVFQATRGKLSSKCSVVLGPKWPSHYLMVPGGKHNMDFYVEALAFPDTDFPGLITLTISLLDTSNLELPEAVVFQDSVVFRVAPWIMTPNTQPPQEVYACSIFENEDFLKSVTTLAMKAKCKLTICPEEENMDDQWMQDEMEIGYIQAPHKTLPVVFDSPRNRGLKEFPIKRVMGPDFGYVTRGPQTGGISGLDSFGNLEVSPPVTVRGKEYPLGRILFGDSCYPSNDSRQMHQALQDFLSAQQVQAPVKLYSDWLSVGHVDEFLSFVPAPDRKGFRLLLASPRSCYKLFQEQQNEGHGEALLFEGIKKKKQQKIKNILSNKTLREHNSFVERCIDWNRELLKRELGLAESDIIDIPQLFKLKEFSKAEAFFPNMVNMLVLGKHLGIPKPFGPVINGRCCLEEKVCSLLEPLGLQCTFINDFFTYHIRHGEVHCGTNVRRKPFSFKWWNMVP

IC50 [nM]	Structure (SMILES)
65	Cc1cc(C(=O)N2CC3CCC2[C@@H]3N)cc2nc(-c3cc4cccnc4n3CC3CC3)n(CC3CN(C(=O)c4ccccc4)C3)c12 (stereo partly drawn) [Example 458, (7R)-2-{1-[(1-benozylazetidin-3-yl)methyl]-2-[1-(cyclopropylmethyl)-1H-pyrrolo[2,3-b]pyridin-2-yl]-7-methyl-1H-1,3-benzodiazole-5-carbonyl}-2-azabicyclo[2.2.1]heptan-7-amine]
66	COc1cc(C(=O)N2CC3CCC2[C@@H]3N)cc2nc(-c3cc4cccnc4n3CC3CC3)n(CC3CN(C(=O)c4ccc(C#N)c(F)c4)C3)c12 (stereo partly drawn) [Example 459, 4-[3-({5-[(7R)-7-amino-2-azabicyclo[2.2.1]heptane-2-carbonyl]-2-[1-(cyclopropylmethyl)-1H-pyrrolo[2,3-b]pyridin-2-yl]-7-methoxy-1H-1,3-benzodiazol-1-yl}methyl)azetidine-1-carbonyl]-2-fluorobenzonitrile]
70	N#Cc1ccc(C(=O)N2CC(Cn3c(-c4cc5cccnc5n4CC4CC4)nc4cc(C(=O)N5CC6CCC5[C@@H]6N)cc(F)c43)C2)cc1 (some centres unmarked) [Example 462]
73	COc1cc(C(=O)N2CC3CCC2[C@@H]3N)cc2nc(-c3cc4ccccc4n3CC3CC3)n(CC3CN(C(=O)c4cnc(C#N)nc4)C3)c12 (stereo partly drawn) [Example 463, 5-[3-({5-[(7R)-7-amino-2-azabicyclo[2.2.1]heptane-2-carbonyl]-2-[1-(cyclopropylmethyl)-1H-indol-2-yl]-7-methoxy-1H-1,3-benzodiazol-1-yl}methyl)azetidine-1-carbonyl]pyrimidine-2-carbonitrile]
83	N[C@@H]1C2CCC1N(C(=O)c1ccc3c(c1)nc(-c1cc4cccnc4n1CC1CC1)n3CC1CN(C(=O)c3ccccc3)C1)C2 (stereo partly drawn) [Example 465, (7R)-2-{1-[(1-benozylazetidin-3-yl)methyl]-2-[1-(cyclopropylmethyl)-1H-pyrrolo[2,3-b]pyridin-2-yl]-1H-1,3-benzodiazole-5-carbonyl}-2-azabicyclo[2.2.1]heptan-7-amine]
129	COc1cc(C(=O)N2C[C@H](N)C[C@@H](F)C2)cc2nc(-c3cc4cccnc4n3CC3CC3)n(CC3(C)CN(C(=O)c4ccccc4)C3)c12 [Example 469, (3R,5R)-1-{1-[(1-benzoyl-3-methylazetidin-3-yl)methyl]-2-[1-(cyclopropylmethyl)-1H-pyrrolo[2,3-b]pyridin-2-yl]-7-methoxy-1H-1,3-benzodiazole-5-carbonyl}-5-fluoropiperidin-3-amine]
100	COc1cc(C(=O)N2CC3CCC2[C@@H]3N)cc2nc(-c3cc4ccccc4n3CC3CC3)n(CC3CC3)c12 (stereo partly drawn) [Example 476, (7R)-2-[1-(cyclopropylmethyl)-2-[1-(cyclopropylmethyl)-1H-indol-2-yl]-7-methoxy-1H-1,3-benzodiazole-5-carbonyl]-2-azabicyclo[2.2.1]heptan-7-amine]
212	COc1cc(C(=O)N2CC3CCC2[C@@H]3N)cc2nc(-c3cc4ccccc4n3CC3CC3)n(CC3CC3c3ccccc3)c12 (stereo partly drawn) [Example 479, (7R)-2-{2-[1-(cyclopropylmethyl)-1H-indol-2-yl]-7-methoxy-1-[(2-phenylcyclopropyl)methyl]-1H-1,3-benzodiazole-5-carbonyl}-2-azabicyclo[2.2.1]heptan-7-amine]

Second part, the molecule before the results:

Structure (SMILES)	IC50 [nM]
COc1cc(C(=O)N2CC3CCC2[C@@H]3N)cc2nc(-c3cc4ccccc4n3CC3CC3)n(CC3CN(C(=O)c4cccs4)C3)c12 (stereo partly drawn) [Example 457, (7R)-2-{2-[1-(cyclopropylmethyl)-1H-indol-2-yl]-7-methoxy-1-{[1-(thiophene-2-carbonyl)azetidin-3-yl]methyl}-1H-1,3-benzodiazole-5-carbonyl}-2-azabicyclo[2.2.1]heptan-7-amine]	63
COc1cc(C(=O)N2C[C@H](N)C[C@@H](F)C2)cc2nc(-c3cc4ccccc4n3CC3CC3)n(CC3(C)CN(C(=O)c4ccccc4)C3)c12 [Example 460, (3R,5R)-1-{1-[(1-benzoyl-3-methylazetidin-3-yl)methyl]-2-[1-(cyclopropylmethyl)-1H-indol-2-yl]-7-methoxy-1H-1,3-benzodiazole-5-carbonyl}-5-fluoropiperidin-3-amine]	67
COc1cc(C(=O)N2CC3CCC2[C@@H]3N)cc2nc(-c3cc4ccccc4n3CC3CC3)n(CC3CN(C(=O)c4cc[n+]([O-])cc4)C3)c12 (stereo partly drawn) [Example 461, 4-[3-({5-[(7R)-7-amino-2-azabicyclo[2.2.1]heptane-2-carobnyl]-2-[1-(cyclopropylmethyl)-1H-indol-2-yl]-7-methoxy-1H-1,3-benzodiazol-1-yl}methyl)azetidine-1-carbonyl]pyridin-1-ium-1-olate]	68
COc1cc(C(=O)N2CC3CCC2[C@@H]3N)cc2nc(-c3cc4cccnc4n3CC3CC3)n(CC3CN(C(=O)c4cccc(F)c4)C3)c12 (stereo partly drawn) [Example 464, (7R)-2-{2-[1-(cyclopropylmethyl)-1H-pyrrolo[2,3-b]pyridin-2-yl]-1-{[1-(3-fluorobenzoyl)azetidin-3-yl]methyl}-7-methoxy-1H-1,3-benzodiazole-5-carbonyl}-2-azabicyclo[2.2.1]heptan-7-amine]	76
N[C@@H]1C2CCC1N(C(=O)c1cc(F)c3c(c1)nc(-c1cc4cccnc4n1CC1CC1)n3CC1CN(C(=O)c3ccncc3)C1)C2 (stereo partly drawn) [Example 466, (7R)-2-{2-[1-(cyclopropylmethyl)-1H-pyrrolo[2,3-b]pyridin-2-yl]-7-fluoro-1-{[1-(pyridine-4-carbonyl)azetidin-3-yl]methyl}-1H-1,3-benzodiazole-5-carbonyl}-2-azabicyclo[2.2.1]heptan-7-amine]	84
N#Cc1ccc(C(=O)N2CC(Cn3c(-c4cc5cccnc5n4CC4CC4)nc4cc(C(=O)N5CC6CCC5[C@@H]6N)ccc43)C2)cc1 (stereo partly drawn) [Example 467, 4-[3-({5-[(7R)-7-amino-2-azabicyclo[2.2.1]heptane-2-carbonyl]-2-[1-(cyclopropylmethyl)-1H-pyrrolo[2,3-b]pyridin-2-yl]-1H-1,3-benzodiazol-1-yl}methyl)azetidine-1-carbonyl]benzonitrile]	91
COc1cc(C(=O)N2C[C@H](N)C[C@@H](F)C2)cc2nc(-c3cc4cccnc4n3CC3CC3)n(CC3(F)CN(C(=O)c4ccccc4)C3)c12 [Example 468, (3R,5R)-1-{1-[(1-benzoyl-3-fluoroazetidin-3-yl)methyl]-2-[1-(cyclopropylmethyl)-1H-pyrrolo[2,3-b]pyridin-2-yl]-7-methoxy-1H-1,3-benzodiazole-5-carbonyl}-5-fluoropiperidin-3-amine]	99
COc1cc(C(=O)N2C[C@H](N)CC[C@@H]2C)cc2nc(-c3cc4cccnc4n3CC3CC3)n(CC3CN(C(=O)c4ccccc4)C3)c12 [Example 470, (3R,6S)-1-{1-[(1-benozylazetidin-3-yl)methyl]-2-[1-(cyclopropylmethyl)-1H-pyrrolo[2,3-b]pyridin-2-yl]-7-methoxy-1H-1,3-benzodiazole-5-carbonyl}-6-methylpiperidin-3-amine]	177
Cc1cc(C(=O)N2CC3CCC2[C@@H]3N)cc2nc(-c3cc4cccnc4n3CC3CC3)n(CC3CN(C(=O)c4ccc(C#N)cc4)C3)c12 (stereo partly drawn) [Example 471, 4-[3-({5-[(7R)-7-amino-2-azabicyclo[2.2.1]heptane-2-carbonyl]-2-[1-(cyclopropylmethyl)-1H-pyrrolo[2,3-b]pyridin-2-yl]-7-methyl-1H-1,3-benzodiazol-1-yl}methyl)azetidine-1-carbonyl]benzonitrile]	228
COc1cc(C(=O)N2CC3CCC2[C@@H]3N)cc2nc(-c3cc4ccccc4n3CC3CC3)n(CC3CN(C(=O)Nc4ccccc4)C3)c12 (stereo partly drawn) [Example 472, 3-({5-[(7R)-7-amino-2-azabicyclo[2.2.1]heptane-2-carbonyl]-2-[1-(cyclopropylmethyl)-1H-indol-2-yl]-7-methoxy-1H-1,3-benzodiazol-1-yl}methyl)-N-phenylazetidine-1-carboxamide]	75
COc1cc(C(=O)N2CC3CCC2[C@@H]3N)cc2nc(-c3cc4ccccc4n3CC3CC3)n(CC3CC(=O)N(C)C3)c12 (stereo partly drawn) [Example 473, 4-({5-[(7R)-7-amino-2-azabicyclo[2.2.1]heptane-2-carbonyl]-2-[1-(cyclopropylmethyl)-1H-indol-2-yl]-7-methoxy-1H-1,3-benzodiazol-1-yl}methyl)-1-methylpyrrolidin-2-one]	129
COc1cc(C(=O)N2CC3CCC2[C@@H]3N)cc2nc(-c3cc4ccccc4n3CC3CC3)n(CC3CC(=O)N(C)C3)c12 (stereo partly drawn) [Example 474, 4-({5-[(7R)-7-amino-2-azabicyclo[2.2.1]heptane-2-carbonyl]-2-[1-(cyclopropylmethyl)-1H-indol-2-yl]-7-methoxy-1H-1,3-benzodiazol-1-yl}methyl)-1-methylpyrrolidin-2-one]	149
COc1cc(C(=O)N2CC3CCC2[C@@H]3N)cc2nc(-c3cc4cccnc4n3CC3CC3)n(CC3CC(C(N)=O)C3)c12 (stereo partly drawn) [Example 475, 3-({5-[(7R)-7-amino-2-azabicyclo[2.2.1]heptane-2-carbonyl]-2-[1-(cyclopropylmethyl)-1H-pyrrolo[2,3-b]pyridin-2-yl]-7-methoxy-1H-1,3-benzodiazol-1-yl}methyl)cyclobutane-1-carboxamide]	180
COc1cc(C(=O)N2C[C@H](N)C[C@@H](F)C2)cc2nc(-c3cc4ccccc4n3CC3CC3)n(CC3CC(F)(F)C3)c12 [Example 477, (3R,5R)-1-{2-[1-(cyclopropylmethyl)-1H-indol-2-yl]-1-[(3,3-difluorocyclobutyl)methyl]-7-methoxy-1H-1,3-benzodiazole-5-carbonyl}-5-fluoropiperidin-3-amine]	142
COc1cc(C(=O)N2CC3CCC2[C@@H]3N)cc2nc(-c3cc4ccccc4n3CC3CC3)n(CC3CC(F)(F)C3)c12 (stereo partly drawn) [Example 478, (7R)-2-{2-[1-(cyclopropylmethyl)-1H-indol-2-yl]-1-[(3,3-difluorocyclobutyl)methyl]-7-methoxy-1H-1,3-benzodiazole-5-carbonyl}-2-azabicyclo[2.2.1]heptan-7-amine]	48
